Experimental data published in patent US20090047244A1, “MACROCYCLIC SERINE PROTEASE INHIBITORS I” (Idenix Pharmaceuticals, Inc., priority 2007, published 2009).
Where two headings read alike, the source gives them in different places.

Experiments:
[1] = rcm bond
[2] = target: T1, HCV NS3-NS4A protease (Hepatitis C virus genotype 1a, UniProt P27958); experiment: HCV Protease Assay (SensoLyte 620 HCV Protease Assay kit); type: biochemical; settings: 1.2 nM HCV NS3-NS4A protease, 5% DMSO, 60 min at room temperature
T1 construct: made in house
Protocol: General procedure: Measurement of the inhibitory effect of compounds on HCV protease activity was performed with the SensoLyte™ 620 HCV Protease Assay kit from AnaSpec, Inc. (San Jose, Calif.) under conditions described by the supplier using 1.2 nM HCV NS3-NS4A protease, which was obtained according to Taremi et al. (Protein Science, 1998, 7, 2143-2149). The compounds were tested at a variety of concentrations in assay buffer containing a final DMSO concentration of 5%. Reactions were allowed to proceed for 60 min at room temperature and fluorescence measurements were recorded with a Tecan Infinity Spectrofluorimeter. The IC50 values were determined from the percent inhibition versus concentration data using a sigmoidal non-linear regression analysis based on four parameters with Tecan Magellan software.

[3] = tested on: Huh-7 cells containing HCV Con1 subgenomic replicon (GS4.1 cells); experiment: HCV Replicon Assay (NS4A ELISA); type: cell-based; settings: Hepatitis C virus, 72 hr, NS4A protein expression by ELISA
Protocol: General procedure: Huh-7 cells containing HCV Con1 subgenomic replicon (GS4.1 cells) were grown in Dulbecco's Modified Eagle Medium (DMEM) supplemented with 10% fetal bovine serum (FBS), 2 mM L-glutamine, 110 mg/L sodium pyruvate, 1X non-essential amino acids, 100 U/mL penicillin-streptomycin, and 0.5 mg/mL G418 (Invitrogen). For dose-response testing, the cells were seeded in 96-well plates at 7.5×10^3 cells/well in a volume of 50 μL, and incubated at 37° C./5% CO2. Three hours after plating, 50 μL of ten 2-fold serial dilutions of compounds (highest concentration, 75 μM) were added, and cell cultures were incubated at 37° C./5% CO2 in the presence of 0.5% DMSO. Alternatively, compounds were tested at a single concentration of 15 μM. In all cases, Huh-7 cells lacking the HCV replicon served as negative control. The cells were incubated in the presence of compounds for 72 hr after which they were monitored for expression of the NS4A protein by enzyme-linked immunosorbent assay (ELISA). For this, the plates were then fixed for 1 min with acetone/methanol (1:1, v/v), washed twice with phosphate-buffered saline (PBS), 0.1% Tween 20, blocked for 1 hr at room temperature with TNE buffer containing 10% FBS and then incubated for 2 hr at 37° C. with the anti-NS4A mouse monoclonal antibody A-236 (ViroGen) diluted in the same buffer. After washing three times with PBS, 0.1% Tween 20, the cells were incubated 1 hr at 37° C. with anti-mouse immunoglobulin G-peroxidase conjugate in TNE, 10% FBS. After washing as described above, the reaction was developed with O-phenylenediamine (Zymed). The reaction was stopped after 30 min with 2 N H2SO4, and absorbance was read at 492 nm using Sunrise Tecan spectrophotometer. EC50 values were determined from the % inhibition versus concentration data using a sigmoidal non-linear regression analysis based on four parameters with Tecan Magellan software. When screening at a single concentration, the results were expressed as % inhibition at 15 μM.

[4] = Cytotoxicity evaluation (Cell Titer 96 AQueous One Solution Cell Proliferation Assay); type: cell-based; settings: human; GS4.1 cells, cellular viability
Protocol: For cytotoxicity evaluation, GS4.1 cells were treated with compounds as described above and cellular viability was monitored using the Cell Titer 96 AQueous One Solution Cell Proliferation Assay (Promega). CC50 values were determined from the % cytotoxicity versus concentration data with Tecan Magellan software as described above.

T1 sequence (P27958 1027-1208): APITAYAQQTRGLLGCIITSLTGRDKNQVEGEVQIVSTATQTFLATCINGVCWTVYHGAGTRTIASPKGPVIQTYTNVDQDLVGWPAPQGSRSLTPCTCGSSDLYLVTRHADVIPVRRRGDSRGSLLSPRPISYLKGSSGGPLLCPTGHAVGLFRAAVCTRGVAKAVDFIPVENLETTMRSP

Row | Structure (SMILES) | IC50 [2] [µM] | EC50 [3] [µM] | CC50 [4] [µM] | other results
1 | CCOC(=O)[C@@]12C[C@H]1/C=C\CCCCN(C)C(=O)N[C@@H](CCO[Si](C)(C)C(C)(C)C)C(=O)N2 |  |  |  | ring closure, yield of all isomers ([1]; from C=CCCCCN(C)C(=O)N[C@@H](CCO[Si](C)(C)C(C)(C)C)C(=O)N[C@]1(C(=O)OCC)C[C@H]1C=C, Hoveyda-Grubbs 1st generation, DCM, 1.96 mM, 40.0 °C, 24.0 h): 50%
2 | CCOC(=O)[C@@]12C[C@H]1C=CCCCCN(C)C(=O)N[C@@H](CO[Si](C)(C)C(C)(C)C)C(=O)N2 |  |  |  | ring closure, yield of all isomers ([1]; from C=CCCCCN(C)C(=O)N[C@@H](CO[Si](C)(C)C(C)(C)C)C(=O)N[C@]1(C(=O)OCC)C[C@H]1C=C, Hoveyda-Grubbs 1st generation, 1,2-dichloroethane, 9.9 mM, 70.0 °C, 16.0 h): 48.1%
3 | COc1ccc2c(OCC[C@@H]3NC(=O)N(C)CCCC/C=C\[C@@H]4C[C@@]4(C(=O)NS(=O)(=O)C4CC4)NC3=O)cc(-c3nc(C(C)C)cs3)nc2c1F | < 0.1 | 10 to 1000 | > 1000 | 
4 | COc1ccc2c(OCC[C@@H]3NC(=O)N(C)CCCC/C=C\[C@@H]4C[C@@]4(C(=O)NS(=O)(=O)C4(C)CC4)NC3=O)cc(-c3ccn(CCC(C)C)n3)nc2c1C | < 0.1 | 0.1 to 10 | > 1000 | 
5 | COc1ccc2c(C(=O)OCC[C@@H]3NC(=O)N(C)CCCC/C=C\[C@@H]4C[C@@]4(C(=O)NS(=O)(=O)C4CC4)NC3=O)cc(-c3ccccc3)nc2c1 | 0.1 to 10 | > 1000 | > 1000 | 
6 | CCn1ccc(-c2cc(OCC[C@@H]3NC(=O)N(C)CCCC/C=C\[C@@H]4C[C@@]4(C(=O)OS(=O)(=O)C4(C)CC4)NC3=O)c3ccc(OC)c(C)c3n2)n1 | < 0.1 | 0.1 to 10 | > 1000 | 
7 | COc1ccc2c(OCC[C@@H]3NC(=O)N(C)CCCCC=C[C@@H]4C[C@@]4(C(=O)NS(=O)(=O)C4CC4)NC3=O)cc(-c3ccccc3)nc2c1 |  |  |  | ring closure, yield of all isomers ([1]; from C=CCCCCN(C)C(=O)N[C@@H](CCOc1cc(-c2ccccc2)nc2cc(OC)ccc12)C(=O)N[C@]1(C(=O)NS(=O)(=O)C2CC2)C[C@H]1C=C, Hoveyda-Grubbs 2nd generation, DCM, 1.5 mM, 100.0 °C, 1.0 h): 7.9%
8 | COc1ccc2c(OCCC3NC(=O)N(C)CCCC/C=C\C4CC4(C(=O)NS(=O)(=O)C4(C)CC4)NC3=O)cc(-c3nc(C(C)C)cs3)nc2c1F (centres unmarked) | < 0.1 | 0.1 to 10 | > 1000 | 
9 | COc1ccc2c(OCCC3NC(=O)N(C)CCCC/C=C\C4CC4(C(=O)NS(=O)(=O)C4(F)CC4)NC3=O)cc(-c3nc(C(C)C)cs3)nc2c1Cl (centres unmarked) | < 0.1 | 0.1 to 10 | > 1000 | 
10 | COc1ccc2c(OCCC3NC(=O)N(C)CCCC/C=C\C4CC4(C(=O)NS(=O)(=O)N4CCOCC4)NC3=O)cc(-c3nc(C(C)C)cs3)nc2c1Cl (centres unmarked) | 0.1 to 10 | 0.1 to 10 | > 1000 | 
11 | COc1ccc2c(OCC[C@@H]3NC(=O)N(C)CCCC/C=C\[C@@H]4C[C@@]4(C(=O)NS(=O)(=O)C4(C)CC4)NC3=O)cc(-c3ccn(CCN4CCOCC4)n3)nc2c1C | < 0.1 | 0.1 to 10 | > 1000 | 
12 | C#C[C@@H]1CCCN1S(=O)(=O)NC(=O)[C@@]12C[C@H]1/C=C\CCCCN(C)C(=O)N[C@@H](CCOc1cc(-c3nc(C(C)C)cs3)nc3c(Cl)c(OC)ccc13)C(=O)N2 | < 0.1 | 0.1 to 10 | > 1000 | 
13 | CCC1(S(=O)(=O)NC(=O)[C@@]23C[C@H]2/C=C\CCCCN(C)C(=O)N[C@@H](CCOc2cc(-c4nc(C(C)C)cs4)nc4c(Cl)c(OC)ccc24)C(=O)N3)CC1 | < 0.1 | < 0.1 | > 1000 | 
14 | COc1ccc2c(OCC[C@@H]3NC(=O)N(C)CCCC/C=C\[C@@H]4C[C@@]4(C(=O)NS(=O)(=O)C4CC4)NC3=O)cc(-c3ccccc3)nc2c1 | < 0.1 | 0.1 to 10 | > 1000 | 
15 | COc1ccc2c(OCC[C@@H]3NC(=O)N(C)CCCC/C=C\[C@@H]4C[C@@]4(C(=O)O)NC3=O)cc(-c3ccccc3)nc2c1 | 0.1 to 10 | 10 to 1000 | > 1000 | 
16 | COc1ccc2c(OCC[C@@H]3NC(=O)N(C)CCCC/C=C\[C@@H]4C[C@@]4(C(=O)NS(=O)(=O)C4CC4)NC3=O)cc(-c3nc(C(C)C)cs3)nc2c1Cl | < 0.1 | < 0.1 | > 1000 | 
17 | COc1ccc2c(OCC[C@@H]3NC(=O)N(C)CCCC/C=C\[C@@H]4C[C@@]4(C(=O)NS(=O)(=O)C4(C)CC4)NC3=O)cc(-c3nc(C(C)C)cs3)nc2c1C | < 0.1 | < 0.1 | > 1000 | 
18 | CCOC(=O)[C@@]12C[C@H]1C=CCCCCCN(C)C(=O)N[C@@H](CCOc1cc(-c3ccccc3)nc3cc(OC)ccc13)C(=O)N2 |  |  |  | ring closure, yield of all isomers ([1]; from C=CCCCCCN(C)C(=O)N[C@@H](CCOc1cc(-c2ccccc2)nc2cc(OC)ccc12)C(=O)N[C@]1(C(=O)OCC)C[C@H]1C=C, Hoveyda-Grubbs 1st generation, DCM, 1.6 mM, 40.0 °C, 16.0 h): 64%
19 | CCOC(=O)[C@@]12C[C@H]1C=CCCCCN(C)C(=O)N[C@@H](CCOc1cc(-c3ccccc3)nc3cc(OC)ccc13)C(=O)N2 |  |  |  | ring closure, yield of all isomers ([1]; from C=CCCCCN(C)C(=O)N[C@@H](CCOc1cc(-c2ccccc2)nc2cc(OC)ccc12)C(=O)N[C@]1(C(=O)OCC)C[C@H]1C=C, Hoveyda-Grubbs 1st generation, DCM, 1.6 mM, 40.0 °C, 16.0 h): 22%
20 | COc1ccc2c(OCC[C@@H]3NC(=O)N(C)CCCC/C=C\[C@@H]4C[C@@]4(C(=O)NS(=O)(=O)C4(C)CC4)NC3=O)cc(-c3ccn(CC(C)C)n3)nc2c1C | < 0.1 | 0.1 to 10 | > 1000 | 
21 | COc1ccc2c(OCC[C@@H]3NC(=O)N(C)CCCC/C=C\[C@@H]4C[C@@]4(C(=O)NS(=O)(=O)N4CCC[C@H]4C#N)NC3=O)cc(-c3nc(C(C)C)cs3)nc2c1Cl | 0.1 to 10 | 0.1 to 10 | > 1000 | 
22 | COc1ccc2c(OCC[C@@H]3NC(=O)N(C)CCCC/C=C\[C@@H]4C[C@@]4(C(=O)NS(=O)(=O)N4CCC(F)(F)C4)NC3=O)cc(-c3nc(C(C)C)cs3)nc2c1Cl | 0.1 to 10 | 0.1 to 10 | > 1000 | 
